Laboratory results taken from patent publication US20100137266A1, “TREATMENT OF INSULIN RESISTANCE AND DISORDERS ASSOCIATED THEREWITH” (UNIVERSITETET I OSLO, priority 2006, published 2010).

Experiments:
[1] = tested on: human myotubes; assay: Lipogenesis and lipid distribution: acetate incorporation into FFA, DAG and TAG in myotubes; assay type: cell-based; details: compared to control myotubes; for FFA synthesis from labeled acetate, increase / level of TAG from labeled acetate: 1 μM T0901317 or 10 μM 22-HC for 4 days; for level of DAG from labeled acetate: 1 μM T0901317 or 10 μM 22-R-HC for 4 days
Description: Human myoblasts were differentiated and treated with LXR ligands as described in FIG. 3. The cells were then incubated with [1-^14C]acetate (2 μCi/ml, 0.1 mM) for 4 h before levels of free fatty acids (FFA), diacylglycerol (DAG) and triacylgycerol (TAG) were determined. Results present means±SEM (n=5; independent muscle cell donors). **p<0.05 vs all other treatments, ^#p<0.05 vs T0901317. Human skeletal muscle cell cultures. […] The biopsies were obtained with informed consent and by approval of the National Committee for Research Ethics, Oslo, Norway. Muscle cell cultures free of fibroblasts were established by the method of Henry et al. (Diabetes, 44, 936-946, 1995), with minor modifications. Briefly, muscle tissue was dissected in Ham's F-10 media at 4° C., dissociated by three successive treatments with 0.05% trypsin/EDTA, and satellite cells were re-suspended in SkGM with 2% FCS and no added insulin. The cells were grown on culture wells coated with ECM gel (Apmis, 109, 726-734, 2001). At about 80% confluence, fusion of myoblasts into multinucleated myotubes was achieved by growth in DMEM with 2% FCS. All cells used were at passage 4 to 6. After 2 days in DMEM the cells were exposed to vehicle (0.1% DMSO), 1 μM T0901317, 10 μ[…]-hydroxycholesterol (22-R-HC) or 10 μ[…]-hydroxycholesterol (22-S-HC) for 4 days. Lipogenesis and lipid distribution. Myotubes were exposed to DMEM supplemented with [1-^14C]acetic acid (2 μCi/ml, 0.1 mM) for 4 h to study lipogenesis and acetate incorporation into TAG and diacylglycerol (DAG). Myotubes were harvested and analyzed as described above (Palmitate uptake and lipid distribution).

[2] = tested on: LXR target genes; assay: Gene expression of LXR target genes in myotubes by Real-Time RT-PCR; assay type: cell-based, human; details: for expression of LXRα, increase / expression of SREBP1c, increase: mRNA normalized to 36B4; for mRNA expression of ACSL1, increase / mRNA expression of FAS, increase / mRNA expression of SCD-1, increase / mRNA expression of fatty acid transporter CD36, increase: 1 μM T0901317 or 10 μM 22-R-HC for 4 days; for mRNA expression of CD36, FAS, ACSL1 and SCD-1 compared to T0901317: 10 μM for 4 days vs 1 μM T0901317
Excerpt: FIG. 5. Effects of 22-hydroxycholesterols on expression of LXR target genes in human myotubes. Human myoblasts were differentiated and treated with LXR ligands as described in FIG. 3. Total RNA were isolated from the cells, reversely transcribed and analyzed by Real-Time RT-PCR. Results are normalized to levels of 36B4 and present means±SEM (n=4-6; independent muscle cell donors). Relative expressions of (A) liver X receptor […], LXRβ, and sterol regulatory element-binding protein (SREBP)1c, (B) ATP-binding cassette transporter (ABC)A1 (C) acyl-CoA synthetase long chain family member 1 (ACSL1), fatty acid transporter (CD36), fatty acid synthase (FAS), and stearoyl-CoA desaturase (SCD)-1. *p<0.05 vs control, **p<0.05 vs all other treatments.
Human skeletal muscle cell cultures. A cell bank of satellite cells was established from muscle biopsy samples of the M. vastus lateralis of 6 healthy volunteers, age 25.7 years (±1.4), with BMI 21.6 (±1.0) and fasting glucose and insulin within normal range. The biopsies were obtained with informed consent and by approval of the National Committee for Research Ethics, Oslo, Norway. Muscle cell cultures free of fibroblasts were established by the method of Henry et al. (Diabetes, 44, 936-946, 1995), with minor modifications. Briefly, muscle tissue was dissected in Ham's F-10 media at 4° C., dissociated by three successive treatments with 0.05% trypsin/EDTA, and satellite cells were re-suspended in SkGM with 2% FCS and no added insulin. The cells were grown on culture wells coated with ECM gel (Apmis, 109, 726-734, 2001). At about 80% confluence, fusion of myoblasts into multinucleated myotubes was achieved by growth in DMEM with 2% FCS. All cells used were at passage 4 to 6. After 2 days in DMEM the cells were exposed to vehicle (0.1% DMSO), 1 μM T0901317, 10 μM 22-R-hydroxycholesterol (22-R-HC) or 10 μM 22-S-hydroxycholesterol (22-S-HC) for 4 days.
RNA isolation and analysis of gene expression by RT-PCR. Myotubes were washed, trypsinized and pelleted before total RNA was isolated by RNeasy Mini kit (Qiagen Sciences, Oslo, Norway) or Agilent Total RNA Mini kit (Matrix, Oslo, Norway) according to the suppliers total RNA isolation protocol. RNA samples were incubated with RNase-free DNase (Qiagen Sciences) for minimum 15 min in an additional step during the RNA isolation procedure. Total RNA (1 μg/μl) was reversely transcribed with hexamere primers using a Perkin-Elmer Thermal Cycler 9600 (25° C. for 10 min, 37° C. for 1 h, 99° C. for 5 min) and a TaqMan reverse-transcription reagents kit (Applied Biosystems). Real time PCR was performed using an ABI PRISM® 7000 Detection System. DNA expression was determined by SYBR® Green (Applied Biosystems), and primers [36B4 (Acc#M17885), ACSL1 (Acc#NM_001995), ABCA1 (Acc#AF165281), CD36 (Acc#L06850), FAS (Acc#U26644), GAPDH (Acc#J104038/M33197, GLUT4 (Acc#M20747), LXRα (Acc#U22662), LXR (Acc#U07132), Myogenin (Acc#X17651), MyoD (Acc#BC064493), PPARα (Acc#L02932), PPARδ (Acc#BC002715), PPARγ (Acc#L40904), SCD-1 (Acc#AB032261), SREBP1c (Acc#U00968)], GLUT1, (Acc#03195), GLUT3 (Acc#M20681), HKII (Acc#AF148513) were designed using Primer Express® (Applied Biosystems). Each target gene was quantified in triplicates and carried out in a 25 μl reaction volume according to the suppliers protocol. All assays were run for 40 cycles (95° C. for 12 s followed by 60° C. for 60 s). The transcription levels were normalized to the housekeeping control genes 36B4 and GAPDH.

[3] = 1 μM T0901317 or 10 μM 22-HC for 4 days
[4] = 10 μM chronic treatment (4 days)

Structure (SMILES) | FFA synthesis from labeled acetate, increase [1] | level of TAG from labeled acetate [1] | level of DAG from labeled acetate [1] | expression level of ABCA1, increase [2, 3] | expression of LXRα, increase [2, 3] | expression of SREBP1c, increase [2, 3] | mRNA expression of ACSL1, increase [2] | mRNA expression of FAS, increase [2] | mRNA expression of SCD-1, increase [2] | mRNA expression of fatty acid transporter CD36, increase [2] | mRNA expression of CD36, FAS, ACSL1 and SCD-1 compared to T0901317 [2] | reduction for DAG from labeled acetate ([1]; 10 μM for 4 days) | expression level of LXRbeta [2, 3] | ACSL1 mRNA expression, down-regulation [2, 4] | CD36 mRNA expression, down-regulation [2, 4] | SCD-1 mRNA expression, down-regulation [2, 4]
CC(C)CC[C@@H](O)[C@@H](C)[C@H]1CC[C@H]2[C@@H]3CC=C4C[C@@H](O)CC[C@]4(C)[C@H]3CC[C@]12C [Example 22-R-HC, 22-R-hydroxycholesterol] | 3 fold | slight increase | did not change | 17 fold | 2-3 fold | 2-3 fold | unaffected | unaffected | unaffected | unaffected | significantly reduced |  |  |  |  | 
CC(C)CC[C@H](O)[C@@H](C)[C@H]1CC[C@H]2[C@@H]3CC=C4C[C@@H](O)CC[C@]4(C)[C@H]3CC[C@]12C [Example 22-S-HC, 22-S-hydroxycholesterol] | only tended to increase FFA synthesis slightly | tendency towards reduced TAG |  | very slightly (but insignificantly) | None of the genes described in FIG. 5A-B were significantly affected | None of the genes described in FIG. 5A-B were significantly affected |  |  |  |  | significantly reduced | ~50% | None of the genes described in FIG. 5A-B were significantly affected | 50-80% | 50-80% | 50-80%
O=S(=O)(c1ccccc1)N(CC(F)(F)F)c1ccc(C(O)(C(F)(F)F)C(F)(F)F)cc1 [Example T0901317] | 2 fold | increased TAG | increased levels of DAG | 14 fold | 4-5 fold | 4-5 fold | 5 fold | 4 fold | 10 fold | 2 fold |  |  |  |  |  | 
